Laboratory results as given in patent publication US20240270821A1, “GIP/GLP1/GCG TRI-RECEPTOR AGONISTS AND USES THEREOF” (priority 2023, published 2024).
Read-outs that look alike come from different tables or passages of the source. Starred links: 1 amine or outer side, 2 acyl side, 3 side chain; linkers in the order of their positions; H or OH if unused. Non-standard residues stand in square brackets, D forms with d. Groups on a side chain read outwards from the residue. *: point of attachment. C18 diacid = O=C(O)CCCCCCCCCCCCCCCCC(=O)*; αMePhe(2-F) = C[C@](N)(Cc1ccccc1F)C(=O)O; γGlu = O=C(O)[C@H](CCC(=O)[*:2])N[*:1]; αMe4Pal = C[C@](N)(Cc1ccncc1)C(=O)O; αMeY = C[C@](N)(Cc1ccc(O)cc1)C(=O)O; 4Pal = N[C@@H](Cc1ccncc1)C(=O)O; αMeL = CC(C)C[C@](C)(N)C(=O)O; αMeS = C[C@](N)(CO)C(=O)O; Orn = NCCC[C@H](N)C(=O)O; AEEA = NCCOCCOCC(=O)O; Aib = CC(C)(N)C(=O)O

Experiments:
Assay type in all cases: cell-based
[1] = biological target: T1, hGIPR (Homo sapiens, UniProt P48546); assay: Functional cAMP activity in the presence of 1% HSA; details: read-out: cAMP Rel EC50, hGIPR
T1 sequence (P48546 22-466): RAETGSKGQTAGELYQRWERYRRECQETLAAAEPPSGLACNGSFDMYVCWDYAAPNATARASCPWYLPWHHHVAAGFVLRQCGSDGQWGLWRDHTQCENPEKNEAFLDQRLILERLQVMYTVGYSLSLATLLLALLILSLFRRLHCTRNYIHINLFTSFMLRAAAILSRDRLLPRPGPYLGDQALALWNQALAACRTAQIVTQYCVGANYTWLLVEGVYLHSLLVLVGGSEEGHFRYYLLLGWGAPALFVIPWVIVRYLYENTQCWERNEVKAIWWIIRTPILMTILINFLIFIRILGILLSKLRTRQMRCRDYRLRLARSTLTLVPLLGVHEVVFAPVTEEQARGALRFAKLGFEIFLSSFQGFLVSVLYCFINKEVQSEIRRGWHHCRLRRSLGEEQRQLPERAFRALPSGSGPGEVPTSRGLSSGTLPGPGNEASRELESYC

[2] = biological target: T2, hGLP-1R (Homo sapiens, UniProt P43220); assay: Functional cAMP activity in the presence of 1% HSA; details: read-out: cAMP Rel EC50, hGLP-1R
T2 sequence (P43220 24-463): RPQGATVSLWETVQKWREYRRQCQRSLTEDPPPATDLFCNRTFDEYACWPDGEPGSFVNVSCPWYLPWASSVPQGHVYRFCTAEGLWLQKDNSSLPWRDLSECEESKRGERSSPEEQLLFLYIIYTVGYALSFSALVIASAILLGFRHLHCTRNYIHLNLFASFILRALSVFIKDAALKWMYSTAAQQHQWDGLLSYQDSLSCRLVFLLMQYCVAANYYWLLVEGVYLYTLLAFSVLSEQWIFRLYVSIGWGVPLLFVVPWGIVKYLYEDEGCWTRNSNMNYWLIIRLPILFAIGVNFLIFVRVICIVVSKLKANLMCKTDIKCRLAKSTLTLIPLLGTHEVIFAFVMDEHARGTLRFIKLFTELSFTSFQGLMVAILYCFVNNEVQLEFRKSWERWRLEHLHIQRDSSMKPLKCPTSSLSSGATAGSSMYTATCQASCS

[3] = biological target: human GcgR (Homo sapiens, UniProt P47871); assay: Functional cAMP activity in the presence of 1% HSA; details: read-out: cAMP Rel EC50, hGcgR
human GcgR, sequence (P47871 26-477): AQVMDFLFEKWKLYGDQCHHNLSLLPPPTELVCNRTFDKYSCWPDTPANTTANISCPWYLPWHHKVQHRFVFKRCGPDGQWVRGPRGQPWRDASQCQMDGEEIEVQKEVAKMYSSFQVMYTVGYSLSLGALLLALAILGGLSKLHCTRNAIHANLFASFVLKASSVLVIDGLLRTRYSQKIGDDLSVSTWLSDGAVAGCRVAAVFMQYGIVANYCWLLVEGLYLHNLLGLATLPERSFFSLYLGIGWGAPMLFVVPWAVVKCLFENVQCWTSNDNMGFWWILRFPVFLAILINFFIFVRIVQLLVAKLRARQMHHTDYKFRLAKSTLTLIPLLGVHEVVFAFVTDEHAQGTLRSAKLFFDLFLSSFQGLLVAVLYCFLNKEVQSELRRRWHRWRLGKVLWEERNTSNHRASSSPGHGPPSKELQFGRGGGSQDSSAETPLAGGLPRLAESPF

[4] = biological target: T1, hGIPR; assay: Functional cAMP activation in the presence of 0.1% casein (no HSA); details: read-out: Relative cAMP EC50, hGIPR;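 for Relative cAMP EC50, hGIPR: intracellular cAMP rise after 30 min at 37 °C read by HTRF against a standard curve, scaled between buffer alone (0%) and top control ligand concentration (100%), four-parameter fit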;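 for Relative cAMP EC50, hGLP-1R: intracellular cAMP rise after 30 min at 37 °C read by HTRF, normalized between buffer only (0%) and maximal control ligand (100%), four-parameter variable-slope fit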;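 for Relative cAMP EC50, hGcgR: intracellular cAMP rise after 30 min at 37 °C, read by HTRF against a cAMP standard curve, scaled from buffer only (0%) to maximal control ligand response (100%)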
[5] = biological target: T2, hGLP-1R; assay: as above; details: read-out: Relative cAMP EC50, hGLP-1R
[6] = biological target: hGcgR (Homo sapiens, UniProt P47871); assay: as above; details: read-out: Relative cAMP EC50, hGcgR;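 note: intracellular cAMP rise after 30 min at 37 °C, read by HTRF against a cAMP standard curve, scaled from buffer only (0%) to maximal control ligand response (100%)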
hGcgR, sequence (P47871 26-477): as above

[7] = in the presence of 0.1% casein (no HSA), geometric mean
[8] = 0.1% casein, no HSA, geometric mean

“H-Y[Aib]QGT[αMePhe(2-F)]TSD[4Pal][αMeS]I[αMeL]LD[Orn]K([γGlu-γGlu-C18 diacid])AQ[αMe4Pal]EFI[dE][αMeY]LIEGGPSSGEPPPSGSE-NH2 [Example 716]” was tested, and the EC50 [1] was 0.557 nM, the EC50 [2] was 24.1 nM and the EC50 [3] was 100 nM. For the same substance, the EC50 [4] was 0.00853 nM, the EC50 [5] was 0.321 nM and the EC50 [6] was 1.12 nM.

With “H-Y[Aib]QGT[αMePhe(2-F)]TSD[4Pal][αMeS]I[αMeL]LD[Orn]K([γGlu-γGlu-C18 diacid])AQ[αMe4Pal]EFI[dE][αMeY]LVEGGPSSGAPPPSGE-NH2 [Example 1160]” the EC50 [1] was 0.598 nM, the EC50 [2] was 31.2 nM and the EC50 [3] was 183 nM. For the same substance, the EC50 [4, 7] was 0.00773 nM, the EC50 [5, 7] was 0.365 nM and the EC50 [6, 7] was 2.41 nM.

“H-Y[Aib]QGT[αMePhe(2-F)]TSD[4Pal][αMeS]I[αMeL]LD[Orn]K([γGlu-γGlu-C18 diacid])AQ[αMe4Pal]EFI[dE][αMeY]LVEGGPSSGEPPPSGE-NH2 [Example 1161]” was tested, and the EC50 [1] was 0.733 nM, the EC50 [2] was 35.5 nM and the EC50 [3] was 217 nM. The EC50 [4, 7] was 0.00973 nM, the EC50 [5, 7] was 0.39 nM and the EC50 [6, 7] was 2.19 nM.

In the case of “H-Y[Aib]QGT[αMePhe(2-F)]TSD[4Pal][αMeS]I[αMeL]LD[Orn]K([γGlu-γGlu-C18 diacid])AQ[αMe4Pal]EFI[dE][αMeY]LVEGGPSSGEPPPSGGGE-NH2 [Example 739]”, the EC50 [1] is reported as 0.507 nM, the EC50 [2] is reported as 27.1 nM and the EC50 [3] is reported as 155 nM. The EC50 [4] was 0.015 nM, the EC50 [5] was 0.348 nM and the EC50 [6] was 1.59 nM.

With “H-Y[Aib]QGT[αMePhe(2-F)]TSD[4Pal][αMeS]I[αMeL]LD[Orn]K([γGlu-γGlu-C18 diacid])AQ[αMe4Pal]EFI[dE][αMeY]LVEGGPSSGEPPPSGSE-NH2 [Example 1163]” the EC50 [1] was 0.721 nM, the EC50 [2] was 35.4 nM and the EC50 [3] was 163 nM. For the same substance, the EC50 [4, 7] was 0.00951 nM, the EC50 [5, 7] was 0.449 nM and the EC50 [6, 7] was 1.75 nM.

Substance “H-Y[Aib]QGT[αMePhe(2-F)]TSD[4Pal][αMeS]I[αMeL]LD[Orn]K([γGlu-γGlu-C18 diacid])AQ[αMe4Pal]EFI[dE][αMeY]LVEGGPSSGEPPPSGTGE-NH2 [Example 738]” has an EC50 [1] of 0.64 nM, an EC50 [2] of 28.2 nM and an EC50 [3] of 162 nM. It also gave an EC50 [4] of 0.00991 nM, an EC50 [5] of 0.368 nM and an EC50 [6] of 1.87 nM.

“H-Y[Aib]QGT[αMePhe(2-F)]TSD[4Pal][αMeS]I[αMeL]LD[Orn]QAQ[αMe4Pal]EFI[dE][αMeY]LIEGGPSSGAPPPSGS-NH2 [Example 1232]” gave an EC50 [1] of 0.00687 nM, an EC50 [2] of 0.694 nM and an EC50 [3] of 8.53 nM. The EC50 [4, 8] was 0.00893 nM, the EC50 [5, 8] was 0.723 nM and the EC50 [6, 8] was 6.69 nM.

“H-Y[Aib]QGT[αMePhe(2-F)]TSD[4Pal][αMeS]I[αMeL]LD[Orn]QAQ[αMe4Pal]EFI[dE][αMeY]LIEGGPSSGAPPPSGSE-NH2 [Example 1233]” showed an EC50 [1] of 0.00988 nM, an EC50 [2] of 1.06 nM and an EC50 [3] of 9.9 nM. The EC50 [4, 8] was 0.012 nM, the EC50 [5, 8] was 1.09 nM and the EC50 [6, 8] was 9.48 nM.

In the case of “H-Y[Aib]QGT[αMePhe(2-F)]TSD[4Pal][αMeS]I[αMeL]LD[Orn]QAQ[αMe4Pal]EFI[dE][αMeY]LVEGGPSSGAPPPSGS-NH2 [Example 1231]”, the EC50 [1] is reported as 0.00994 nM, the EC50 [2] is reported as 1.22 nM and the EC50 [3] is reported as 17.1 nM. It also gave an EC50 [4, 8] of 0.0146 nM, an EC50 [5, 8] of 1.23 nM and an EC50 [6, 8] of 15.7 nM.

Work on “H-Y[Aib]QGT[αMePhe(2-F)]TSD[4Pal][αMeS]I[αMeL]LD[Orn][Orn]([AEEA-γGlu-C18 diacid])AQ[αMe4Pal]EFI[dE][αMeY]LIEGGPSSGAPPPSGGGE-NH2 [Example 1213]” yielded an EC50 [1] of 0.616 nM, an EC50 [2] of 44 nM and an EC50 [3] of 268 nM. It also gave an EC50 [4, 8] of 0.00721 nM, an EC50 [5, 8] of 0.423 nM and an EC50 [6, 8] of 1.69 nM.

“H-Y[Aib]QGT[αMePhe(2-F)]TSD[4Pal][αMeS]I[αMeL]LD[Orn][Orn]([AEEA-γGlu-C18 diacid])AQ[αMe4Pal]EFI[dE][αMeY]LIEGGPSSGAPPPSGS-NH2 [Example 1211]” showed an EC50 [1] of 0.489 nM, an EC50 [2] of 33.2 nM and an EC50 [3] of 211 nM. It also gave an EC50 [4, 8] of 0.00592 nM, an EC50 [5, 8] of 0.276 nM and an EC50 [6, 8] of 1.45 nM.
